Source: patent US8012956B2, “Tropane compounds” (Exelixis, Inc., priority 2007, dated 2011)

Target: HSP90 (Homo sapiens, UniProt P07900)
Experiment: HSP90 inhibition (HSP90 IC50)
Assay type: biochemical

Row | IC50 [nM] | Compound
1 | < 500 | CC(Nc1c(C(N)=O)ccc(C(=O)N[C@H]2C[C@H]3CC[C@@H](C2)N3c2ccc(C(=O)C3CC3)cn2)c1Cl)C1CC1 (stereo partly drawn) [2-chloro-N-{8-[5-(cyclopropylcarbonyl)pyridin-2-yl]-8-azabicyclo[3.2.1]oct-3-endo-yl}-3-[(1-cyclopropylethyl)amino]benzene-1,4-dicarboxamide]
2 | < 500 | Cc1cc(C(N)=O)c(NC(C)CC(F)(F)F)cc1C(=O)N[C@H]1C[C@H]2CC[C@@H](C1)N2c1ccc(C(=O)C2CC2)cn1 (stereo partly drawn) [N-{8-[5-(cyclopropylcarbonyl)pyridin-2-yl]-8-azabicyclo[3.2.1]oct-3-endo-yl}-2-methyl-5-[(3,3,3-trifluoro-1-methylpropyl)amino]benzene-1,4-dicarboxamide]
3 | < 500 | Cc1cc(C(=O)N[C@H]2C[C@H]3CC[C@@H](C2)N3c2ccc(C(=O)NC3CN(C(C)C)C3)cn2)c(C)cc1C(N)=O [2,5-dimethyl-N-{8-[5-({[1-(1-methylethyl)azetidin-3-yl]amino}carbonyl)pyridin-2-yl]-8-azabicyclo[3.2.1]oct-3-endo-yl}benzene-1,4-dicarboxamide]
4 | 1000 to 2000 | COc1cccc(C(=O)N[C@H]2C[C@H]3CC[C@@H](C2)N3c2ccc(C(=O)NCCc3cccnc3)cn2)c1C [6-[3-endo-({[2-methyl-3-(methyloxy)phenyl]carbonyl}amino)-8-azabicyclo[3.2.1]oct-8-yl]-N-(2-pyridin-3-ylethyl)pyridine-3-carboxamide]
5 | < 500 | CC(C)(C)CNc1cc(C(=O)N[C@H]2C[C@H]3CC[C@@H](C2)N3c2ccc(C(=O)C3CC3)cn2)c(Br)cc1C(N)=O [2-bromo-N-{8-[5-(cyclopropylcarbonyl)pyridin-2-yl]-8-azabicyclo[3.2.1]oct-3-endo-yl}-5-[(2,2-dimethylpropyl)amino]benzene-1,4-dicarboxamide]
6 | 500 to 999 | CC(=O)c1ccc(N2[C@@H]3CC[C@H]2C[C@@H](NC(=O)c2ccc(C(N)=O)c(NCc4ccccc4)c2)C3)nc1 [N4-[8-(5-acetylpyridin-2-yl)-8-azabicyclo[3.2.1]oct-3-endo-yl]-2-[(phenylmethyl)amino]benzene-1,4-dicarboxamide]
7 | 2000 to 10000 | COc1ccccc1NC(=O)c1ccc(N2[C@@H]3CC[C@H]2C[C@@H](NC(=O)c2cccc(OC)c2C)C3)nc1 [6-[3-endo-({[2-methyl-3-(methyloxy)phenyl]carbonyl}amino)-8-azabicyclo[3.2.1]oct-8-yl]-N-[2-(methyloxy)phenyl]pyridine-3-carboxamide]
8 | < 500 | COc1cccc(C(=O)N[C@H]2C[C@H]3CC[C@@H](C2)N3c2ccc(C(=O)NCc3cccnc3)cn2)c1C [6-[3-endo-({[2-methyl-3-(methyloxy)phenyl]carbonyl}amino)-8-azabicyclo[3.2.1]oct-8-yl]-N-(pyridin-3-ylmethyl)pyridine-3-carboxamide]
9 | 1000 to 2000 | COc1cccc(C(=O)N[C@H]2C[C@H]3CC[C@@H](C2)N3c2ccc(C(=O)NCc3ccccc3)cn2)c1Br [6-[3-endo-({[2-bromo-3-(methyloxy)phenyl]carbonyl}amino)-8-azabicyclo[3.2.1]oct-8-yl]-N-(phenylmethyl)pyridine-3-carboxamide]
10 | < 500 | CCCCCNc1cc(C(=O)N[C@H]2C[C@H]3CC[C@@H](C2)N3c2ccc(C(C)=O)cn2)c(C)cc1C(N)=O [N-[8-(5-acetylpyridin-2-yl)-8-azabicyclo[3.2.1]oct-3-endo-yl]-2-methyl-5-(pentylamino)benzene-1,4-dicarboxamide]
11 | < 500 | NC(=O)c1ccc(C(=O)N[C@H]2C[C@H]3CC[C@@H](C2)N3c2ccc(C(=O)NCc3cccnc3)cn2)cc1 [N-[8-(5-{[(pyridin-3-ylmethyl)amino]carbonyl}pyridin-2-yl)-8-azabicyclo[3.2.1]oct-3-endo-yl]benzene-1,4-dicarboxamide]
12 | < 500 | CC[C@@H](C)Nc1cc(C(=O)NC2CC3CCC(C2)N3c2ccc(C(=O)C3CC3)cn2)c(C(F)(F)F)cc1C(N)=O (stereo partly drawn) [N-{8-[5-(cyclopropylcarbonyl)pyridin-2-yl]-8-azabicyclo[3.2.1]oct-3-endo-yl}-5-{[(1R)-1-methylpropyl]amino}-2-(trifluoromethyl)benzene-1,4-dicarboxamide]
13 | < 500 | CC(C)[C@H](C)Nc1cc(C(=O)NC2CC3CCC(C2)N3c2ccc(C(=O)C3CC3)cn2)c(Br)cc1C(N)=O (stereo partly drawn) [2-bromo-N-{8-[5-(cyclopropylcarbonyl)pyridin-2-yl]-8-azabicyclo[3.2.1]oct-3-endo-yl}-5-{[(1S)-1,2-dimethylpropyl]amino}benzene-1,4-dicarboxamide]
14 | < 500 | NC(=O)c1ccc(C(=O)N[C@H]2C[C@H]3CC[C@@H](C2)N3c2ccc(C(=O)C3CC3)cn2)cc1Nc1ccncc1 [N4-{8-[5-(cyclopropylcarbonyl)pyridin-2-yl]-8-azabicyclo[3.2.1]oct-3-endo-yl}-2-(pyridin-4-ylamino)benzene-1,4-dicarboxamide]
15 | < 500 | NC(=O)c1ccc(C(=O)N[C@H]2C[C@H]3CC[C@@H](C2)N3c2ccc(C(=O)CCC3CCNCC3)cn2)cc1NCC1CC1 [2-[(cyclopropylmethyl)amino]-N4-{8-[5-(3-piperidin-4-ylpropanoyl)pyridin-2-yl]-8-azabicyclo[3.2.1]oct-3-endo-yl}benzene-1,4-dicarboxamide]
16 | < 500 | CN1CCN(CCC(=O)c2ccc(N3[C@@H]4CC[C@H]3C[C@@H](NC(=O)c3ccc(C(N)=O)c(NCC5CC5)c3)C4)nc2)CC1 [2-[(cyclopropylmethyl)amino]-N4-(8-{5-[3-(4-methylpiperazin-1-yl)propanoyl]pyridin-2-yl}-8-azabicyclo[3.2.1]oct-3-endo-yl)benzene-1,4-dicarboxamide]
17 | < 500 | COc1cccc(C(=O)N[C@H]2C[C@H]3CC[C@@H](C2)N3c2ccc(C(=O)NCc3ccccc3)cn2)c1CCCO [6-[3-endo-({[2-(3-hydroxypropyl)-3-(methyloxy)phenyl]carbonyl}amino)-8-azabicyclo[3.2.1]oct-8-yl]-N-(phenylmethyl)pyridine-3-carboxamide]
18 | < 500 | COc1cccc(C(=O)N[C@H]2C[C@H]3CC[C@@H](C2)N3c2ccc(C(=O)NCc3c(F)cc(F)cc3F)cn2)c1C [6-[3-endo-({[2-methyl-3-(methyloxy)phenyl]carbonyl}amino)-8-azabicyclo[3.2.1]oct-8-yl]-N-[(2,4,6-trifluorophenyl)methyl]pyridine-3-carboxamide]
19 | < 500 | COc1cccc(C(=O)N[C@H]2C[C@H]3CC[C@@H](C2)N3c2ccc(C(=O)NCc3ccccc3Cl)cn2)c1C [N-[(2-chlorophenyl)methyl]-6-[3-endo-({[2-methyl-3-(methyloxy)phenyl]carbonyl}amino)-8-azabicyclo[3.2.1]oct-8-yl]pyridine-3-carboxamide]
20 | 2000 to 10000 | Cc1c(C(N)=O)cccc1C(=O)N[C@H]1C[C@H]2CC[C@@H](C1)N2c1ccc(C(=O)NCc2ccccc2)cn1 [2-methyl-N-[8-(5-{[(phenylmethyl)amino]carbonyl}pyridin-2-yl)-8-azabicyclo[3.2.1]oct-3-endo-yl]benzene-1,3-dicarboxamide]
21 | < 500 | Cc1cc(C(N)=O)c(NCC(C)(C)C)cc1C(=O)N[C@H]1C[C@H]2CC[C@@H](C1)N2c1ccc(C(=O)C2CC2)cn1 [N-{8-[5-(cyclopropylcarbonyl)pyridin-2-yl]-8-azabicyclo[3.2.1]oct-3-endo-yl)-5-[(2,2-dimethylpropyl)amino]-2-methylbenzene-1,4-dicarboxamide]
22 | 500 to 999 | COc1cccc(C(=O)N[C@H]2C[C@H]3CC[C@@H](C2)N3c2ccc(C(=O)NC3CCCCC3)cn2)c1C [N-cyclohexyl-6-[3-endo-({[2-methyl-3-(methyloxy)phenyl]carbonyl}amino)-8-azabicyclo[3.2.1]oct-8-yl]pyridine-3-carboxamide]
23 | 2000 to 10000 | COc1cccc(C(=O)NC2CC3CCC(C2)N3c2ccc(C(=O)NCC3COC(C)(C)O3)cn2)c1C (stereo not drawn) [N-[(2,2-dimethyl-1,3-dioxolan-4-yl)methyl]-6-[3-endo-({[2-methyl-3-(methyloxy)phenyl]carbonyl}amino)-8-azabicyclo[3.2.1]oct-8-yl]pyridine-3-carboxamide]
24 | < 500 | COc1cccc(C(=O)NC2CC3CCC(C2)N3c2ccc(C(=O)N[C@@H]3CCN(Cc4ccccc4)C3)cn2)c1C (stereo partly drawn) [6-[3-endo-({[2-methyl-3-(methyloxy)phenyl]carbonyl}amino)-8-azabicyclo[3.2.1]oct-8-yl]-N-[(3R)-1-(phenylmethyl)pyrrolidin-3-yl]pyridine-3-carboxamide]
25 | < 500 | CC(=O)c1ccc(N2[C@@H]3CC[C@H]2C[C@@H](NC(=O)c2ccc(C(N)=O)c(NCC(F)(F)C(F)(F)F)c2)C3)nc1 [N4-[8-(5-acetylpyridin-2-yl)-8-azabicyclo[3.2.1]oct-3-endo-yl]-2-[(2,2,3,3,3-pentafluoropropyl)amino]benzene-1,4-dicarboxamide]
26 | < 500 | CC(=O)c1ccc(N2C3CCC2CC(NC(=O)c2ccc(C(N)=O)c(N[C@H]4CC[C@H](O)CC4)c2)C3)nc1 (stereo partly drawn) [N4-[8-(5-acetylpyridin-2-yl)-8-azabicyclo[3.2.1]oct-3-endo-yl]-2-[(trans-4-hydroxycyclohexyl)amino]benzene-1,4-dicarboxamide]
27 | < 500 | CCC(COC)Nc1cc(C(=O)N[C@H]2C[C@H]3CC[C@@H](C2)N3c2ccc(C(C)=O)cn2)ccc1C(N)=O (stereo partly drawn) [N4-(8-(5-acetylpyridin-2-yl)-8-azabicyclo[3.2.1]oct-3-endo-yl]-2-({1-[(methyloxy)methyl]propyl}amino) benzene-1,4-dicarboxamide]
28 | 2000 to 10000 | COc1cccc(C(=O)NC2CC3CCC(C2)N3c2ccc(C(=O)N[C@H](C)c3ccccc3)cn2)c1C (stereo partly drawn) [6-[3-endo-({[2-methyl-3-(methyloxy)phenyl]carbonyl}amino)-8-azabicyclo[3.2.1]oct-8-yl]-N-[(1R)-1-phenylethyl]pyridine-3-carboxamide]

Row | Compound | IC50 [nM]
29 | N4-(8-{5-[({(1S)- 1-[4-(4- methylpiperazin-1- yl)phenyl]ethyl}amino)carbonyl]pyridin- 2-yl}-8-azabicyclo[3.2.1]oct-3- endo-yl)-2-(phenylamino)benzene- 1,4-dicarboxamide | < 500
30 | COC(=O)[C@@H](NC(=O)c1ccc(N2C3CCC2CC(NC(=O)c2cccc(OC)c2C)C3)nc1)c1ccc(OC)cc1 (stereo partly drawn) | 1000 to 2000
